Measured values from patent US8183046B2, “Temperature resistant pH buffers for use at low temperatures” (The Board of Trustees of the University of Illinois, priority 2007, dated 2012).
“And” between values parts separate entries of the source, which are not always exact repeats. Equal entries are not always repeated. Residues, ends and D or L forms follow the SMILES beside them.

Columns and labels:
[1] = Temperature dependence of pH of buffer solutions, ratiometric UV-vis (A418/A623) with indicator 1; type: physicochemical; settings: for pH at plateau: plateau 150 K to 90 K; for pH at 298 K: single buffers; for direction of pH change as the solution is equilibrated at lower temperatures: FIG. 4, 50 mM buffer solutions containing 75% glycerol
[2] = cited from earlier work; for Effective pH Range: buffer without pK index; for Effective pH Range (pK1): line labelled pK1; for Effective pH Range (pK2): line labelled pK2; for pKa values for the single buffers, second value: Table 5, in parentheses; for Effective pH Range (pK3): line labelled pK3
[3] = cited from earlier work
[4] = cited from earlier work; remark: listed apart in the source
[5] = Freeze-thaw storage stability of oxacillin solutions in various buffers, HPLC; type: physicochemical
[6] = pH-sensitive dye; cited from earlier work
[7] = Table 3, change in pH with decreasing temperature, pH 6.1 at 298 K

Molecule: O=S(=O)(O)CCN1CCOCC1 [MES, 2-morpholinoethanesulfonic acid]
- ΔpH ([1]; Table 3, change in pH with decreasing temperature, pH 6.0 at 298 K): +1.4
- pH at plateau ([1]; Table 3, pH 6.0 at 298 K): 7.4
- pH at 298 K ([1]; Table 3): 6.0

Molecule: CC(C)(CO)NCC(O)CS(=O)(=O)O (centres unmarked) [AMPSO]
- Effective pH Range ([2]; Table 2): 8.3–9.7

Molecule: NCC(=O)NCC(=O)O [glycylglycine] (H-Gly-Gly-OH)
- Effective pH Range (pK1) ([2]; Table 2): 2.5–3.8
- Effective pH Range (pK2) ([2]; Table 2): 7.5–8.9
- pKa at 25° C., pK1 ([2]; Table 2, pK1 or first value printed in the cell): 3.14

Molecule: O=S(=O)(O)CC(O)CN1CCN(CC(O)CS(=O)(=O)O)CC1 (centres unmarked) [POPSO]
- Effective pH Range ([2]; Table 2): 7.2–8.5

Molecule: O=C(O)O [carbonate]
- Effective pH Range (pK1) ([2]; Table 2): 6.0–8.0
- Effective pH Range (pK2) ([2]; Table 2): 9.5–11.1

Molecule: COc1cccc2c1C(=O)c1c(O)c3c(c(O)c1C2=O)C[C@@](O)(C(=O)CO)C[C@@H]3O[C@H]1C[C@H](N)[C@H](O)[C@H](C)O1 [doxorubicin]
- therapeutic activity upon repeated freeze-thaw treatments ([3]; freeze (−20° C.)-thaw (+37° C.), correlates with hydrolysis of the aminoglycoside bond): gradually reduces therapeutic activity
- optimum pH for storage stable, ready-to-use formulations ([3]; storage at 4-8° C.): 3.0

Molecule: O=S(=O)(O)CCCCN1CCN(CCO)CC1 [HEPBS]
- Effective pH Range ([2]; Table 2): 7.6–9.0

Molecule: O=S(=O)(O)CC(O)CNC(CO)(CO)CO (centres unmarked) [TAPSO]
- Effective pH Range ([2]; Table 2): 7.0–8.2

Molecule: CC(N)(CO)CO [AMPD, 2-amino-2-methyl-1,3-propanediol]
- Effective pH Range ([2]; Table 2): 7.8–9.7

Molecule: thrombin-activated porcine factor VIII: thrombin-activated porcine factor VIII, heterotrimeric coagulation protein
- coagulation activity between pH 7 and 8 ([4]; between pH 7 and 8): sharp decline
- state of the protein at pH 6.0 ([4]; pH 6.0 at 4° C. or 20° C.): stable, active, heterotrimer

Molecule: C1CNCCN1 [piperazine]
- Effective pH Range (pK1) ([2]; Table 2): 5.0–6.0
- Effective pH Range (pK2) ([2]; Table 2): 9.5–9.8

Molecule: O=P(O)(O)OP(=O)(O)O [pyrophosphate]
- Effective pH Range ([2]; Table 2): 7.0–9.0

Molecule: Cc1onc(-c2ccccc2)c1C(=O)N[C@@H]1C(=O)N2[C@@H]1SC(C)(C)[C@@H]2C(=O)O [oxacillin]
- hydrolysis of the antibiotic on storage, versus HEPES:KPhosphate (60:40) buffered solution ([5]; 200 μM in 50 mM BisTris Propane buffer pH 7.0, 193 K, freeze-thaw over eight days): greater hydrolysis
- pH-induced hydrolysis under freeze-thaw storage conditions ([5]; 200 μM in 50 mM HEPES:KPhosphate (60:40) pH 7.0, 193 K, eight days): reduced

Molecule: NC(=O)CNCCS(=O)(=O)O [ACES]
- Effective pH Range ([2]; Table 2): 6.1–7.5

Molecule: CC(C)(N)CO [AMP, 2-amino-2-methyl-1-propanol]
- Effective pH Range ([2]; Table 2): 8.7–10.4

Molecule: O=P(O)(O)O [KPhosphate, potassium phosphate]
- ΔpH over a 208 K range ([1]; 298 K to 90 K, 50 mM buffer, pH 7.0): −0.50
- direction of pH change as the solution is equilibrated at lower temperatures [1]: decreases
- pH at plateau ([1]; Table 3, pH 7.0 at 298 K): 6.5
- pH at plateau ([1]; Table 3, pH 8.0 at 298 K): 7.3
- pH at 298 K ([1]; Table 3): 8.0 and 7.0
- ΔpH ([1]; pH 7): −0.5
- ΔpH ([1]; pH 8): −0.7
- pH change ([1]; starting from pH 8.0, indicator 1): ~−0.7 units

Molecule: O=S(=O)(O)CCN1CCN(CCS(=O)(=O)O)CC1 [PIPES]
- Effective pH Range ([2]; Table 2): 6.1–7.5

Molecule: O=S(=O)(O)CC(O)CN(CCO)CCO (centres unmarked) [DIPSO]
- Effective pH Range ([2]; Table 2): 7.0–8.2

Molecule: CC(=O)O [acetate]
- direction of pH change as the solution is equilibrated at lower temperatures [1]: increases

Molecule: N [ammonium hydroxide]
- Effective pH Range ([2]; Table 2): 8.8–9.9

Molecule: NCC(=O)O [glycine]
- Effective pH Range (pK1) ([2]; Table 2): 2.2–3.6
- Effective pH Range (pK2) ([2]; Table 2): 8.8–10.6

Molecule: O=S(=O)(O)CCCNC1CCCCC1 [CAPS]
- Effective pH Range ([2]; Table 2): 9.7–11.1

Molecule: O=S(=O)(O)CCNC1CCCCC1 [CHES]
- Effective pH Range ([2]; Table 2): 8.6–10.0

Molecule: O=S(=O)(O)CC(O)CNC1CCCCC1 (centres unmarked) [CAPSO]
- Effective pH Range ([2]; Table 2): 8.9–10.3

Molecule: O=C(O)C(O)C(O)C(=O)O (centres unmarked) [Tartrate]
- pKa values for the single buffers, second value [2]: (3.00, 4.40)^1

Molecule: O=S(=O)(O)CCCN1CCOCC1 [MOPS, 3-N-morpholino propansulfonic acid]
- Effective pH Range ([2]; Table 2): 6.5–7.9
- direction of pH change as the solution is equilibrated at lower temperatures [1]: increases
- ΔpH [1, 7]: +1.6
- pH at plateau ([1]; Table 3, pH 6.1 at 298 K): 7.7
- pH at 298 K ([1]; Table 3): 6.1
- increase of pH upon lowering the temperature ([1]; room temperature to ~170 K, 50 mM, 75% glycerol): about 1.6 pH unit
- degree of pH change with temperature, 50% glycerol versus 75% glycerol ([1]; sample containing 50% glycerol, FIG. 6): somewhat larger

Molecule: NC(CO)(CO)CO [Trizma, 2-Amino-2-(hydroxymethyl)-1,3-propanediol]
- Effective pH Range ([2]; Table 2): 7.5–9.0
- direction of pH change as the solution is equilibrated at lower temperatures [1]: increases
- ΔpH ([1]; Table 3, change in pH with decreasing temperature, pH 7.0 at 298 K): +2.2
- pH at plateau ([1]; Table 3, pH 7.0 at 298 K): 9.2
- pH at 298 K ([1]; Table 3): 7.0

Molecule: O=C(O)CC(O)C(=O)O (centres unmarked) [malate]
- Effective pH Range (pK1) ([2]; Table 2): 2.7–4.2
- Effective pH Range (pK2) ([2]; Table 2): 4.0–6.0

Molecule: O=S(=O)(O)CCCCNC1CCCCC1 [CABS]
- Effective pH Range ([2]; Table 2): 10.0–11.4

Molecule: c1c[nH]cn1 [imidazole]
- Effective pH Range ([2]; Table 2): 6.2–7.8

Molecule: Cc1c(C2(c3cc(Br)c(O)c(Br)c3C)OS(=O)(=O)c3ccccc32)cc(Br)c(O)c1Br [Bromocresol green]
- pKa [6]: 4.6

Molecule: O=S(=O)(O)CCCNC(CO)(CO)CO [TAPS]
- Effective pH Range ([2]; Table 2): 7.7–9.1

Molecule: CC(=O)[O-].[Na+] [Na-Acetate, sodium acetate]
- pH at plateau ([1]; Table 3, pH 5.0 at 298 K): 5.4
- pH at 298 K ([1]; Table 3): 5.0
- ΔpH ([1]; pH 5): +0.4

Molecule: OCC(CO)(CO)NCCCNC(CO)(CO)CO [BIS-TRIS propane, 1,3-bis[tris(hydroxymethyl)methylamino]propane]
- Effective pH Range ([2]; Table 2): 6.3–9.5
- pKa at 25° C., pK2 ([2]; Table 2, pK2 or second value printed in the cell): 9.00
- pKa values for the single buffers, second value [2]: 9.0
- ΔpH [1, 7]: +2.1
- pH at plateau ([1]; Table 3, pH 6.1 at 298 K): 8.2
- pH at 298 K ([1]; Table 3): 6.1

Molecule: phosphate
- Effective pH Range (pK1) ([2]; Table 2): 1.7–2.9
- Effective pH Range (pK2) ([2]; Table 2): 5.8–8.0
- Effective pH Range (pK3) ([2]; Table 2): 11.5–13.0

Molecule: O=C(O)CNC(CO)(CO)CO [tricine]
- Effective pH Range ([2]; Table 2): 7.4–8.8

Molecule: O=S(=O)(O)CCCCNC(CO)(CO)CO [TABS]
- Effective pH Range ([2]; Table 2): 8.2–9.6

Molecule: O=C(O)CC(O)(CC(=O)O)C(=O)O [citrate]
- Effective pH Range (pK1) ([2]; Table 2): 2.2–6.5
- Effective pH Range (pK2) ([2]; Table 2): 3.0–6.2
- Effective pH Range (pK3) ([2]; Table 2): 5.5–7.2
